Reference: ChEMBL document CHEMBL4364356, “Deuteration of BTZ043 Extends the Lifetime of Meisenheimer Intermediates to the Antituberculosis Nitroso Oxidation State” (ACS Med Chem Lett, 2019)
The source made the active and inactive calls. The rule behind the calls is not given here.

Key:
[1] = Prodrug conversion in THF/MeOH solution assessed as first order rate constant for protonated/deuterated metabolite (6HD) formation at 0.01 mmol treated with NaBH4 by UV-visible spectroscopic analysis; format: ADME
[2] = Prodrug conversion in THF/MeOH solution assessed as first order rate constant for deuterated metabolite (6D2) formation at 0.01 mmol treated with NaBD4 by UV-visible spectroscopic analysis; format: ADME
[3] = target: T1, Decaprenylphosphoryl-beta-D-ribose oxidase (Mycobacterium tuberculosis (strain ATCC 25618 / H37Rv)) (UniProt P9WJF1); test: Inhibition of DprE1 in Mycobacterium tuberculosis H37Rv assessed as reduction in bacterial growth at 0.02 to 0.03 uM measured in GAS medium
T1 sequence (whole entry): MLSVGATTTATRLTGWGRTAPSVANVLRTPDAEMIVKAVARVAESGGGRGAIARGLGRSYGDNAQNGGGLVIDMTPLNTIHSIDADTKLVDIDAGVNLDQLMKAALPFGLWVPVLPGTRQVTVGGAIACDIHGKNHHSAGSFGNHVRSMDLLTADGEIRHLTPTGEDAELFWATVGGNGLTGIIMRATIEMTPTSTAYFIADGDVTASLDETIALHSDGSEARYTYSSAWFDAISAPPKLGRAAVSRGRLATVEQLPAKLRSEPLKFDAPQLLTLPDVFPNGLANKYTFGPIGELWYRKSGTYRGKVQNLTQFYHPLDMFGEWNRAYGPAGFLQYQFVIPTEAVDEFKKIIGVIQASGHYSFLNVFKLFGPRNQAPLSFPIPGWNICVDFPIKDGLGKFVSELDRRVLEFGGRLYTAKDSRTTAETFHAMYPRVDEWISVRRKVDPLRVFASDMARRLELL

[4] = Drug recovery in THF/MeOH solution measured after 3 days by 1H-NMR analysis; conditions: tested as the 2H-labelled form
[5] = Prodrug conversion in THF/MeOH solution assessed as first order rate constant for protonated metabolite (6H2) formation at 0.01 mmol treated with NaBH4 by UV-visible spectroscopic analysis; format: ADME
[6] = target: T1, Decaprenylphosphoryl-beta-D-ribose oxidase (Mycobacterium tuberculosis (strain ATCC 25618 / H37Rv)); test: Inhibition of DprE1 in Mycobacterium tuberculosis H37Rv assessed as reduction in bacterial growth at <0.004 uM measured in MABA media

[2H]c1c(C(F)(F)F)c([2H])c2c(=O)nc(N3CCC4(CC3)OC[C@H](C)O4)sc2c1[N+](=O)[O-]
K [1]: 2.8 ×10⁻⁵ /s | K [2]: 1.2 ×10⁻⁵ /s

C[C@H]1COC2(CCN(c3nc(=O)c4cc(C(F)(F)F)cc([N+](=O)[O-])c4s3)CC2)O1 [BTZ-043]
inhibition [3]: Active | inhibition ([3]; tested as the 2H-labelled form): Active | Drug recovery [4]: 95% | K [5]: 5.6 ×10⁻⁵ /s | inhibition [6]: Active | inhibition ([6]; tested as the 2H-labelled form): Active
